Laboratory results taken from the NIST ThermoML archive (doi:10.1021/acs.jced.8b00499).
± gives the expanded uncertainty stated by the source.

Experiments:
[1] = Liquid; for viscosity / mass density: 298.15 K, 101.33 kPa; for viscosity: Capillary tube (Ostwald / Ubbelohde) method; for mass density: Pycnometric method; for vapor or sublimation pressure: Ebulliometric method (Recirculating still)
[2] = refractive index (Na D-line) (dimensionless); details: 298.15 K; 101.33 kPa; Liquid; Standard Abbe refractometry

CCC(C)OCOC (stereo unspecified) [2-(methoxymethoxy)butane]
Details	mass density [kg/m3]	refractive index	viscosity [mPa·s]
[1]	836.4 ± 1	–	0.561 ± 0.014
[2]	–	1.3833 ± 0.0006	–

[1]
Details	vapor or sublimation pressure [kPa]
346.4 K	31.5 ± 1
349.99 K	36.4 ± 1
356.07 K	44.4 ± 1
359.47 K	49.6 ± 1
363.89 K	57.2 ± 1
367.43 K	65.1 ± 1
372.48 K	75.7 ± 1
376.45 K	85.1 ± 1
379.35 K	92 ± 1
382.8 K	101.3 ± 1
385.21 K	109.1 ± 1
388.5 K	119 ± 1
391.24 K	127.9 ± 1.1

CCCCO [butan-1-ol]
Details	mass density [kg/m3]	refractive index	viscosity [mPa·s]
[1]	806 ± 0.9	–	2.534 ± 0.072
[2]	–	1.3972 ± 0.0006	–

Details	vapor or sublimation pressure [kPa]
[1], 390.9 K	101.3 ± 1.1

CCC(C)O (stereo unspecified) [butan-2-ol]
Details	mass density [kg/m3]	refractive index	viscosity [mPa·s]
[1]	802.6 ± 0.9	–	3.099 ± 0.09
[2]	–	1.395 ± 0.0006	–

[1]
Details	vapor or sublimation pressure [kPa]
344.47 K	31.5 ± 1
351.27 K	42.8 ± 1
356.45 K	53.5 ± 1
363.21 K	70.7 ± 1
366.85 K	81.2 ± 1
369.83 K	91.3 ± 1.1
372.7 K	101.3 ± 1.1

CO [methanol]
Details	vapor or sublimation pressure [kPa]
[1], 337.83 K	101.3 ± 1.1
